The values below are quoted from earlier work in patent US20180185454A1, “AGENT FOR PREVENTING ONSET OF IDIOPATHIC OSTEONECROSIS OF FEMORAL HEAD AND/OR SUPPRESSING PROGRESS OF SAME” (ASAHI KASEI PHARMA CORPORATION, priority 2015, published 2018).

Data set [1] relates to ION. Conditions: vs alendronate control; no statistical superiority between the two groups; dosage not disclosed.
Data set [2] concerns bone formation markers.
Data set [3] relates to osteonecrosis of the jawbone. The following applies: induced by bisphosphonates and denosumab.

Where two headings read alike, the source gives them in different places.

Consider `CC[C@H](C)[C@H](NC(=O)[C@H](CCC(=O)O)NC(=O)[C@H](CO)NC(=O)[C@@H](NC(=O)[C@@H](N)CO)C(C)C)C(=O)N[C@@H](CCC(N)=O)C(=O)N[C@@H](CC(C)C)C(=O)N[C@@H](CCSC)C(=O)N[C@@H](Cc1cnc[nH]1)C(=O)N[C@@H](CC(N)=O)C(=O)N[C@@H](CC(C)C)C(=O)NCC(=O)N[C@@H](CCCCN)C(=O)N[C@@H](Cc1cnc[nH]1)C(=O)N[C@@H](CC(C)C)C(=O)N[C@@H](CC(N)=O)C(=O)N[C@@H](CO)C(=O)N[C@@H](CCSC)C(=O)N[C@@H](CCC(=O)O)C(=O)N[C@@H](CCCN=C(N)N)C(=O)N[C@H](C(=O)N[C@@H](CCC(=O)O)C(=O)N[C@@H](Cc1c[nH]c2ccccc12)C(=O)N[C@@H](CC(C)C)C(=O)N[C@@H](CCCN=C(N)N)C(=O)N[C@@H](CCCCN)C(=O)N[C@@H](CCCCN)C(=O)N[C@@H](CC(C)C)C(=O)N[C@@H](CCC(N)=O)C(=O)N[C@@H](CC(=O)O)C(=O)N[C@H](C(=O)N[C@@H](Cc1cnc[nH]1)C(=O)N[C@@H](CC(N)=O)C(=O)N[C@@H](Cc1ccccc1)C(=O)O)C(C)C)C(C)C` [teriparatide], for which the “femoral head collapse progress (difference in collapse values before and after administration, simple x-ray frontal views)” value in data set [1] is “tended to suppress femoral head collapse progress in comparison to alendronate”. Moreover, the entries for the “effect on bone formation markers” value in data set [2] (20 μg daily formulation) and in data set [2] (56.5 μg once-a-week formulation) were “markedly increases” and “only slightly”, respectively. For the same molecule, in data set [3], the “effect against osteonecrosis of the jawbone” value is “have an effect”.
